What was measured:
wound healing processes = test: Influence on wound healing processes
Lewis lung carcinoma = test: Antitumor / antimetastatic activity, Lewis lung carcinoma; assay type: in vivo, mice
Experimental: (§1) Apart from the tests on Ehrlich ascitic tumor, giniquine was studied on twelve more inoculated tumors. Seven tumors (melanoma B16, sarcoma AK, large intestine carcinoma acatol-1, sarcoma 180, adenocarcinoma 755, Lewis lung carcinoma and sarcoma 37) were inoculated subcutaneously with 50 mg of tumoral cells per mouse. Four tumors (lymphatic leukemies L 5178, L 5178Y, L 1210 and P-388) were inoculated intraperitoneally with 10^6 cells per mouse. One tumor (La, hemocytoblastosis) was inoculated intraperitoneally by injecting 50 mg of cell suspension of spleen and liver of mice suffering La hemocytoblastosis, per mouse. Giniquine was injected intraperitoneally five times for seven days: 1,2,3,4,7 days or 3,4,5,6,7 days after the implantation of tumor. The rate of deceleration of the tumor growth was established 14 days after the ultimate injection of giniquine; life of test animals was recorded for 60 days.

acatol-1 = test: Antitumor activity, large intestine adenocarcinoma acatol-1; assay type: in vivo, mice
Experimental: as §1

[1] = system: Mucous membrane of small intestine; test: In vivo biosynthesis of DNA, RNA and protein in mucous membrane of small intestine; design: species or system mice; details: 24 hours, intraperitoneal 28 mg/kg
Experimental: (§2) The influence of giniquine on biosynthetic processes in the in vivo tests was studied on common white mice of a mass of 25-35 g with Ehrlich ascitic tumor.
(§3) The mice were divided into two groups. The animals in the first group were given a single injection of the preparation in differing doses, and the animals in the second group were treated with distilled water. Three series of experiments were conducted. In the first series of tests (16 mice) the preparation was injected in a dose of 100 mg/kg ([…] dose), and the animals were decapitated one hour after the injection; in the second test series (16 mice) the animals were slaughtered 3 hours after the injection with other conditions being the same. In the third test series (35 mice) the influence of giniquine on plastic metabolism in tumor cells and normal tissues was studied 24 hours after the injection of a 0.33% solution of the preparation in a dose of 28 mg/kg (therapeutical dose).
(§4) Labeled precursors of nucleic acids and protein were injected intraperitoneally one hour before the slaughter of the animals (50 μc/100 g). Ascitic fluid, as well as liver and spleen, mucous membrane of small intestine, brain, kidneys and lungs were taken for analysis. 10% suspension was prepared from tumor cells, and 10% homogenates were prepared from tissues in a physiological solution.
(§5) Tumor cells and tissue homogenates for precipitation of nucleic acids were treated with 57% perchloric acid (10:1). […] Radioactivity of DNA and RNA fractions was measured by means of a liquid scintillation counter. The quantity of DNA and RNA was determined by spectrophotometry: the quantity of DNA was determined with diphenylamine, and RNA- with orcin.
(§6) To prepare protein hydrolysate, the suspension of tumoral cells and homogenates of normal tissues were treated with cool 10% trichloracetic acid (1:4), with subsequent centrifuging at 2000 g for ten minutes. […] The radioactivity was measured by means of a liquid scintillation counter. Protein was quantitatively determined by spectrophotometry using a microbiuret reaction.

[2] = LD50 / toxicity, mice with 7-days Ehrlich ascitic tumor; assay type: in vivo; details: for LD50: mouse, in vivo
From the text: It should be noted that with a single intraperitoneal injection of the
With peroral administration, toxicity of giniquine is 4-5 times lower.

La hemocytoblastosis = test: Antitumor activity, La hemocytoblastosis; assay type: in vivo, mice
Experimental: as §1

sarcoma 180 = test: Antitumor activity, sarcoma 180; assay type: in vivo, mice
Experimental: as §1

lymphatic leukemia P-388 = test: Antitumor activity, lymphatic leukemia P-388; assay type: in vivo, mice
Experimental: as §1

tumor cells = test: Antiblastic activity and selectivity of action on tumor cells (general statement)
Lungs = test: In vivo biosynthesis of DNA, RNA and protein in lungs; design: species or system mice; details: 24 hours, intraperitoneal 28 mg/kg
Experimental: as §2, §3, §4, §5, §6

[3] = BALB/c female mice, intraperitoneal, days 3,4,5,6,7, optim. daily dose 10.0 mg/kg

CCN(CC)CCCC(C)NC(=O)c1cc(C=Cc2ccc([N+](=O)[O-])o2)nc2ccccc12 (stereo not drawn) [giniquine, 2-[2'-(5"-nitrofuryl-2")vinyl]quinoline-4-carboxylic acid (α-methyl-δ-diethylaminobutyl)amide triphosphate]
inhibiting influence on wound healing processes (wound healing processes): absence of an inhibiting influences on wound healing processes
Max. life prolong. (Lewis lung carcinoma; BDF1 female mice, intraperitoneal, days 1,2,3,4,7, optimum daily dose 6.0 mg/kg): 15%
antimetastatic activity / sensitivity (in words) (Lewis lung carcinoma; Lewis lung carcinoma): practically insensitive
Deceleration of tumor growth (acatol-1; [3]): 38%
Max. prolongation of life (acatol-1; [3]): 25%
antitumor effect / sensitivity (in words) (acatol-1; acatol-1): slight antitumor effect
Incorporation of specific precursors, DNA [1]: 386.0 % of control
Incorporation of specific precursors, Protein [1]: 122.0 % of control
Incorporation of specific precursors, RNA [1]: 158.0 % of control
dependence of mice sensitivity on sex ([2]; Table 4): does not depend on the sex of test mice
LD50 ([2]; ip, intraperitoneal, single injection, female): 99 mg/kg
LD50 ([2]; po, peroral, single administration, female): 360 mg/kg
LD50 ([2]; po, peroral, single administration, male): 500 mg/kg
toxicity, times lower ([2]; peroral administration): 4-5 times lower
toxicity, relative ([2]; single intraperitoneal injection, 7 days after implantation of Ehrlich ascitic tumor): three times lower
Max. life prolong. (La hemocytoblastosis; C57 BL/6Y female mice, intraperitoneal, days 1,2,3,4,7, optimum daily dose 10.0 mg/kg): 5%
antitumor effect / sensitivity (in words) (La hemocytoblastosis; La hemocytoblastosis): practically insensitive
Deceleration of tumor growth (sarcoma 180; common female mice, intraperitoneal, days 3,4,5,6,7, optim. daily dose 6.0 mg/kg): 37%
Max. prolongation of life (sarcoma 180; common female mice, intraperitoneal, days 3,4,5,6,7, optim. daily dose 10.0 mg/kg): 23%
antitumor effect / sensitivity (in words) (sarcoma 180; sarcoma 180): slight antitumor effect
sensitivity (in words) (lymphatic leukemia P-388; P-388): practically insensitive
Max. life prolong. (lymphatic leukemia P-388; printed B-388, BDF1 female mice, intraperitoneal, days 1,2,3,4,7, optimum daily dose 10.0 mg/kg): 12%
antiblastic / antitumoral activity (tumor cells): highly active antitumoral preparation
selective (contact) action on tumor cells (tumor cells): selective action on tumor cells
Incorporation of specific precursors, DNA (Lungs): 255.0 % of control
Incorporation of specific precursors, Protein (Lungs): 102.0 % of control
Incorporation of specific precursors, RNA (Lungs): 124.0 % of control
